Holding throughout (type): functional, organism-based
Test [1] has as its system Plasmodium falciparum. The test can be described thus: Antimalarial activity against multidrug-resistant Plasmodium falciparum K1 by SYBR green-based assay.
The subject of test [2] is Plasmodium falciparum. The test can be described thus: Antimalarial activity against drug-sensitive Plasmodium falciparum NF54 by SYBR green-based assay.
Test [3] deals with Plasmodium falciparum. The test can be described thus: Antimalarial activity against multidrug-resistant Plasmodium falciparum W2 by SYBR green-based assay.

A value given as a limit tells only on which side of the number the result lay.

`Cc1cc(Nc2cccc3cccnc23)n2ncnc2n1`: the 50% inhibitory concentration (IC50) in the test with Plasmodium falciparum [1] worked out at 760 nM; in the test on Plasmodium falciparum [2], 880 nM.

For the compound `c1cnc2c(Nc3ccnc4ncnn34)cccc2c1`, the IC50 in the test on Plasmodium falciparum [1] was determined as 840 nM; in the test with Plasmodium falciparum [2], 1400 nM. On the same counts, the results for `N#Cc1cnc2cc(C3CC3)nn2c1Nc1cccc2cccnc12` are 2000 nM and 1600 nM.

On to `c1cc(Nc2ccnc3ccnn23)c2ccncc2c1`, for which the half-inhibitory concentration (IC50) worked out at 1600 nM with Plasmodium falciparum [1] and 1200 nM in the test with Plasmodium falciparum [2]. For `c1cnc2c(Oc3ccnc4ccnn34)cccc2c1`, in that order: over 2000 nM and over 2000 nM. With `c1cc(Nc2ccnc3ccnn23)c2c(c1)OCCO2`, the IC50 in the test on Plasmodium falciparum [1] and with Plasmodium falciparum [2] was over 2000 nM throughout. As for `Cc1ccc2cccc(Nc3ccnc4ccnn34)c2n1`, the concentration for half-maximal inhibition (IC50) with Plasmodium falciparum [1] was 1200 nM; in the test with Plasmodium falciparum [2] it was 1700 nM. As for `Cc1ccc2cccnc2c1Nc1ccnc2ccnn12`, the 50% inhibitory concentration (IC50) in the test with Plasmodium falciparum [1] and with Plasmodium falciparum [2] was over 2000 nM in each case.

For `Cc1cc(Nc2ccnc3ccnn23)c2ncccc2c1`, the IC50 came out at 38 nM in the test on Plasmodium falciparum [1] and 63 nM with Plasmodium falciparum [2]. As to `FC(F)(F)c1cc(Nc2ccnc3ccnn23)c2ncccc2c1`, the values for the IC50 with Plasmodium falciparum [1] and in the test on Plasmodium falciparum [2] were 18 nM and 42 nM, respectively. With `COc1cc(Nc2ccnc3ccnn23)c2ncccc2c1`, the IC50 in the test on Plasmodium falciparum [1] is 26 nM; in the test with Plasmodium falciparum [2] it was 14 nM. In the case of `Fc1cc(Nc2ccnc3ccnn23)c2ncccc2c1`, the IC50 in the test with Plasmodium falciparum [1] and in the test with Plasmodium falciparum [2] was 3.9 nM throughout. Turning to `Cc1nc2cccc(Nc3cccc4cccnc34)c2o1`, the IC50 was 1600 nM with Plasmodium falciparum [1] and 1300 nM in the test on Plasmodium falciparum [2].

On to `Cc1nccc(Nc2cccc3cccnc23)n1`, for which the 50% inhibitory concentration (IC50) in the test on Plasmodium falciparum [1] and in the test with Plasmodium falciparum [2] was over 500 nM throughout. With `c1cnc2c(Nc3ccnc4ccnn34)cccc2c1`, the IC50 is 7.8 nM in the test on Plasmodium falciparum [1] and 5.3 nM in the test with Plasmodium falciparum [2]. Consider `Cc1cc(Nc2cccc3cccnc23)n2nccc2n1`, for which the results for the IC50 in the test on Plasmodium falciparum [1] and with Plasmodium falciparum [2] were 6.7 nM and under 3.9 nM, respectively.

Consider `N#Cc1cnn2c(Nc3cccc4cccnc34)ccnc12`, for which the IC50 in the test on Plasmodium falciparum [1] was found to be 51 nM; with Plasmodium falciparum [2], 71 nM. For `Cc1nn2c(Nc3cccc4cccnc34)c(C#N)cnc2c1C`, in that order: 27 nM and 26 nM. As for `C[C@@H]1CC[C@H]2[C@@H](C)C(=O)O[C@@H]3O[C@@]4(C)CC[C@@H]1[C@]32OO4` [ARTEMISININ], in the test with Plasmodium falciparum [2], it took 7 nM to reach half-maximal inhibition (IC50). `O=C1C(O)=C([C@H]2CC[C@H](c3ccc(Cl)cc3)CC2)C(=O)c2ccccc21` [ATOVAQUONE] had an IC50 in the test on Plasmodium falciparum [1] of 2.3 nM. For the compound `COc1cc(NC(C)CCCN)c2ncccc2c1` (stereo not given) [PRIMAQUINE], in the test on Plasmodium falciparum [3], the IC50 amounted to 1470 nM. As to `COc1cc(C)c2c(Oc3cccc(C(F)(F)F)c3)c(OC)cc(NC(C)CCCN)c2n1` (stereo not given) [TAFENOQUINE], in the test with Plasmodium falciparum [3], the IC50 is 217 nM.

A word on the IC50: it is the concentration that inhibits the measured activity by half. Low readings indicate greater potency in that assay, high ones weaker potency in that assay.

The values are drawn from ChEMBL document CHEMBL3400088, “Synthesis and in vitro evaluation of novel 8-aminoquinoline-pyrazolopyrimidine hybrids as potent antimalarial agents” (Bioorg Med Chem Lett, 2015).
